Results taken from US20180289678A1, “PHARMACEUTICAL COMPOSITION, PHARMACEUTICAL DOSAGE FORM, PROCESS FOR THEIR PREPARATION, METHODS FOR TREATING AND USES THEREOF” (Boehringer Ingelheim International GmbH, priority 2009, published 2018).
Where two headings read alike, the source gives them in different places.

Assay: Pharmacokinetic profile in fasting humans, ranges over Studies .1 to .5
Type: in vivo
Settings: human, plasma, oral
Description: 5. Pharmacokinetic Parameters
The pharmacokinetic parameters of pharmaceutical compositions and pharmaceutical dosage forms are assessed in healthy volunteer and patient populations. In the studies shown below, the participants fasted on the day of sampling, unless as otherwise stated (see for example study .3). The active substance in the studies below is the compound (I.9), preferably in the crystalline form (I.9X), and the dose of active ingredient is indicated in mg.
For the quantification of plasma concentrations of the active ingredient, 2.7 mL of blood was collected and transferred into an EDTA (ethylendiaminetetraacetic acid)-anticoagulant blood drawing tube. The EDTA-anticoagulated blood samples were centrifuged immediately after collection. Centrifugation lasted for about 10 minutes (at about 2,000×gf to 4,000×gf) at 4-8° C. or within 30 minutes while stored on ice. Concentrations of active substance in EDTA human plasma samples were quantitated using a HPLC/MS/MS method. The assay method comprised a solid phase supported liquid-liquid extraction of human plasma coupled with HPLC/MS/MS determination of the extracted samples. The HPLC/MS/MS assay was validated for the range of 1.11 to 1110 nM in human plasma.
Study .1: Single dose study in a healthy volunteer population of N=72. Healthy volunteers were administered tablets as described in Example 10 (section Examples of formulations).
Study .2: Multiple rising dose trial in a diabetic patient population of N=48, once daily administration for 8 days. Patients were administered tablets as described in Example 10 (section Examples of formulations).
Study .3: Single dose, cross-over, food effect study in a healthy volunteer population of N=14. Healthy volunteers were administered tablets as described in Example 10 (section Examples of formulations).
Study .4: 4-week treatment of a diabetic patient population of N=78, once daily administration for 4 weeks. Patients were administered tablets as described in Example 10 (section Examples of formulations).
Study .5: Single dose study in a healthy volunteer population of N=48 (Japanese volunteers). Healthy volunteers were administered tablets as described in Example 11 (section Examples of formulations).
AUC0-inf:area under the concentration-time curve of the analyte in plasma over the time interval from 0 extrapolated to infinity.
Cmax: maximum concentration of the analyte in plasma.
Tmax: time from dosing to maximum concentration.
AUCT,SS:area under the concentration-time curve of the analyte in plasma over the time interval from 0 to 24 h at steady-state.
Cmax,ss:maximum concentration of the analyte in plasma at steady state over a uniform dosing interval.
tmax,ss:time from dosing to maximum concentration at steady state.

OC[C@H]1O[C@@H](c2ccc(Cl)c(Cc3ccc(O[C@H]4CCOC4)cc3)c2)[C@H](O)[C@@H](O)[C@@H]1O [Compound (I.9), 1-chloro-4-(β-D-glucopyranos-1-yl)-2-[4-((S)-tetrahydrofuran-3-yloxy)-benzyl]-benzene]
AUC (2.5 mg, dose of 2.5 mg, read-out: AUC): 0.283 to 0.677 µM·h | Cmax (2.5 mg, dose of 2.5 mg, read-out: Cmax): 40.3 to 96.3 nM | AUC (2.5 mg, dose of 2.5 mg, read-out: geometric mean AUC): 0.394 to 0.468 µM·h | Cmax (2.5 mg, dose of 2.5 mg, read-out: geometric mean Cmax): 52.9 to 66.6 nM | AUC (2.5 mg, multiple doses of 2.5 mg, read-out: AUCτ,ss): 0.283 to 0.677 µM·h | Cmax (2.5 mg, multiple doses of 2.5 mg, read-out: Cmax,ss): 40.3 to 96.3 nM | AUC(0-inf) (2.5 mg, single dose of 2.5 mg, read-out: AUC0-inf): 0.326 to 0.631 µM·h | Cmax (2.5 mg, single dose of 2.5 mg, read-out: Cmax): 42.8 to 81.2 nM | AUC(0-inf) (2.5 mg, single dose of 2.5 mg, read-out: geometric mean AUC0-inf): 0.394 to 0.468 µM·h | Cmax (2.5 mg, single dose of 2.5 mg, read-out: geometric mean Cmax): 52.9 to 61.3 nM | AUC (5 mg, dose of 5.0 mg, read-out: AUC): 1 to 1.31 µM·h | Cmax (5 mg, dose of 5.0 mg, read-out: Cmax): 123 to 230 nM | AUC(0-inf) (5 mg, single dose of 5.0 mg, read-out: AUC0-inf): 1 to 1.31 µM·h | Cmax (5 mg, single dose of 5.0 mg, read-out: Cmax): 123 to 230 nM | AUC (10 mg, dose of 10.0 mg, read-out: AUC): 1.17 to 3.19 µM·h | Cmax (10 mg, dose of 10.0 mg, read-out: Cmax): 143 to 796 nM | AUC (10 mg, dose of 10.0 mg, read-out: geometric mean AUC): 1.69 to 2.66 µM·h | Cmax (10 mg, dose of 10.0 mg, read-out: geometric mean Cmax): 221 to 372 nM | AUC (10 mg, multiple doses of 10.0 mg, read-out: AUCτ,ss): 1.35 to 2.6 µM·h | Cmax (10 mg, multiple doses of 10.0 mg, read-out: Cmax,ss): 166 to 479 nM | AUC (10 mg, multiple doses of 10.0 mg, read-out: geometric mean AUCτ,ss): 1.85 to 2 µM·h | Cmax (10 mg, multiple doses of 10.0 mg, read-out: geometric mean Cmax,ss): 252 to 272 nM | AUC(0-inf) (10 mg, single dose of 10.0 mg, read-out: AUC0-inf): 1.17 to 3.19 µM·h | Cmax (10 mg, single dose of 10.0 mg, read-out: Cmax): 143 to 796 nM | AUC(0-inf) (10 mg, single dose of 10.0 mg, read-out: geometric mean AUC0-inf): 1.69 to 2.66 µM·h | Cmax (10 mg, single dose of 10.0 mg, read-out: geometric mean Cmax): 221 to 372 nM | AUC (25 mg, dose of 25.0 mg, read-out: AUC): 2.66 to 7.64 µM·h | Cmax (25 mg, dose of 25.0 mg, read-out: Cmax): 334 to 1030 nM | AUC (25 mg, dose of 25.0 mg, read-out: geometric mean AUC): 3.75 to 6.13 µM·h | Cmax (25 mg, dose of 25.0 mg, read-out: geometric mean Cmax): 490 to 709 nM | AUC (25 mg, multiple doses of 25.0 mg, read-out: AUCτ,ss): 2.79 to 7.64 µM·h | Cmax (25 mg, multiple doses of 25.0 mg, read-out: Cmax,ss): 443 to 907 nM | AUC (25 mg, multiple doses of 25.0 mg, read-out: geometric mean AUCτ,ss): 4.64 to 4.89 µM·h | Cmax (25 mg, multiple doses of 25.0 mg, read-out: geometric mean Cmax,ss): 622 to 676 nM | AUC(0-inf) (25 mg, single dose of 25.0 mg, read-out: AUC0-inf): 2.66 to 7.17 µM·h | Cmax (25 mg, single dose of 25.0 mg, read-out: Cmax): 334 to 1030 nM | AUC(0-inf) (25 mg, single dose of 25.0 mg, read-out: geometric mean AUC0-inf): 3.75 to 6.13 µM·h | Cmax (25 mg, single dose of 25.0 mg, read-out: geometric mean Cmax): 490 to 709 nM | AUC (50 mg, dose of 50.0 mg, read-out: AUC): 6.45 to 14.1 µM·h | Cmax (50 mg, dose of 50.0 mg, read-out: Cmax): 722 to 2020 nM | AUC (50 mg, dose of 50.0 mg, read-out: geometric mean AUC): 8.31 to 8.46 µM·h | Cmax (50 mg, dose of 50.0 mg, read-out: geometric mean Cmax): 1080 to 1140 nM | AUC(0-inf) (50 mg, single dose of 50.0 mg, read-out: AUC0-inf): 6.45 to 14.1 µM·h | Cmax (50 mg, single dose of 50.0 mg, read-out: Cmax): 722 to 2020 nM | AUC(0-inf) (50 mg, single dose of 50.0 mg, read-out: geometric mean AUC0-inf): 8.31 to 8.46 µM·h | Cmax (50 mg, single dose of 50.0 mg, read-out: geometric mean Cmax): 1080 to 1140 nM
